Laboratory results reported in patent US12459974B2, “Bicyclic peptide ligands specific for Nectin-4” (priority 2018, dated 2025).
*1 amine or outer side, *2 acyl side, *3 side chain or, on linkers, in order; H or OH if unused. Where a SMILES comes first, the peptide text is derived from it. Bridges are numbered along the chain shown (N, C = ends). Roman numbers before positions name the chains, in order. [ ]: non-standard residue; d: D form. The star is where a group is joined. ξ: configuration not given here. TATA = O=C(CC[*:1])N1CN(C(=O)CC[*:2])CN(C(=O)CC[*:3])C1; Dolaproine = CO[C@@H]([C@@H]1CCCN1)[C@@H](C)C(=O)O; X1 = CC[C@H](C)C(C(CC(=O)[*:2])OC)N(C)[*:1]; 1Nal = N[C@@H](Cc1cccc2ccccc12)C(=O)O; X3 = O=C(CCCC(=O)[*:2])NCCC(=O)[*:1]; PABC = O=C(OCc1ccc(N[*:1])cc1)[*:2]; Hyp = O=C(O)[C@@H]1C[C@@H](O)CN1; hArg = N=C(N)NCCCC[C@H](N)C(=O)O; Cit = NC(=O)NCCC[C@H](N)C(=O)O; X2 = CC(N*)[C@@H](O)c1ccccc1; ξNMeV = CNC(C(=O)O)C(C)C; ξV = CC(C)C(N)C(=O)O; Sar = CNCC(=O)O

Columns and labels:
Set-up in all cases: species or system Mus Musculus
MDA-MB-468 xenograft [1] = assay: Example 9.9: in vivo efficacy of BCY8245 alone or with BCY8234 in MDA-MB-468 xenograft (large tumors) in Balb/c nude mice
MDA-MB-468 xenograft [2] = assay: Example 9.8: in vivo efficacy of BCY8245, BCY8781 and BCY8245 with BCY8234 in MDA-MB-468 xenograft in Balb/c nude mice; settings: for tumor relapse (in words): following monitoring schedule
MDA-MB-468 xenograft [3] = assay: Example 4: in vivo efficacy in MDA-MB-468 xenograft (breast cancer model) in Balb/c nude mice
[4] = 1 mg/kg qw and 3 mg/kg qw in combination with BCY8234 300 mg/kg qw, day 21

CC[C@H](C)C(C(CC(=O)N1CCC[C@H]1[C@H](OC)[C@@H](C)C(=O)NC(C)[C@@H](O)c1ccccc1)OC)N(C)C(=O)[C@@H](NC(=O)C(C(C)C)N(C)C(=O)OCc1ccc(NC(=O)[C@H](CCCNC(N)=O)NC(=O)C(NC(=O)CCCC(=O)NCCC(=O)N(C)CC(=O)N(C)CC(=O)N(C)CC(=O)N(C)CC(=O)N(C)CC(=O)N(C)CC(=O)N(C)CC(=O)N(C)CC(=O)N(C)CC(=O)N(C)CC(=O)N[C@H]2CSCCC(=O)N3CN4CN(C3)C(=O)CCSC[C@H](NC(=O)[C@@H](CC(=O)O)NC(=O)[C@H](Cc3cccc5ccccc35)NC(=O)[C@@H]3CCCN3C2=O)C(=O)N[C@@H](CCSC)C(=O)N[C@@H](CCCCNC(=N)N)C(=O)N[C@@H](CC(=O)O)C(=O)N[C@@H](Cc2c[nH]c3ccccc23)C(=O)N[C@@H](CO)C(=O)N[C@@H]([C@@H](C)O)C(=O)N2CCC[C@H]2C(=O)N2C[C@H](O)C[C@H]2C(=O)N[C@@H](Cc2c[nH]c3ccccc23)C(=O)N[C@H](C(N)=O)CSCCC4=O)C(C)C)cc1)C(C)C (stereo partly drawn) [BCY8245, MMAE-PABC-Cit-Val-Glutaryl-BCY8234] (I: [Sar][Sar][Sar][Sar][Sar][Sar][Sar][Sar][Sar][Sar]CP[1Nal][dD]CM[hArg]DWSTP[Hyp]WC-NH2 / II: [ξV][Cit][PABC][ξNMeV]V[X1][Dolaproine]-X2; linker I:11-I:15-I:25 via TATA; linker I:N-II:N via X3)
Tumor volume (MDA-MB-468 xenograft [1]; Group3, 3 mpk, qw, day 56): 125 ± 58 mm^3 | tumor response (in words) (MDA-MB-468 xenograft [1]; former vehicle group and group 2, 5 mg/kg on PG-D28, following 3 weeks): effective tumor regression | anti-tumor activity (in words) (MDA-MB-468 xenograft [2]; 0.3 mg/kg qw or biw): did not show any anti-tumor activity | TGI (MDA-MB-468 xenograft [2]; [4]): 75.4% | Tumor volume (TV) (MDA-MB-468 xenograft [2]; [4]): 242 mm^3 | TGI (MDA-MB-468 xenograft [2]; 1 mg/kg qw, day 21): 92.1% | Tumor volume (TV) (MDA-MB-468 xenograft [2]; 1 mg/kg qw, day 21): 204 mm^3 | tumor relapse (in words) (MDA-MB-468 xenograft [2]; 1 mg/kg qw): obvious tumor relapse | TGI (MDA-MB-468 xenograft [2]; 3 mg/kg qw, day 21): 164.9% | Tumor volume (TV) (MDA-MB-468 xenograft [2]; 3 mg/kg qw, day 21): 27 mm^3 | tumor relapse (in words) (MDA-MB-468 xenograft [2]; 3 mg/kg qw): didn't show any tumor relapse | anti-tumor activity at 3 mg/kg in presence of BCY8234 at 300 mg/kg versus alone (in words) (MDA-MB-468 xenograft [2]; 3 mg/kg with BCY8234 300 mg/kg): antagonized by BCY8234 | T/C (MDA-MB-468 xenograft [2]; 0.3 mpk, qw): 71.4% | TGI (MDA-MB-468 xenograft [2]; 0.3 mpk, qw): 52.7% | T/C (MDA-MB-468 xenograft [2]; 1 mpk, qw): 48.6% | TGI (MDA-MB-468 xenograft [2]; 1 mpk, qw): 92.1% | T/C (MDA-MB-468 xenograft [2]; 3 mpk, qw): 6.5% | TGI (MDA-MB-468 xenograft [2]; 3 mpk, qw): 164.9% | tumor response (in words) (MDA-MB-468 xenograft [2]; former vehicle group, single dose of 5 mg/kg on day 32): obvious tumor regression | TGI (MDA-MB-468 xenograft [3]; 3 mg/kg biw, day 21): 169.8% | Tumor volume (TV) (MDA-MB-468 xenograft [3]; 3 mg/kg biw, day 21): 22 mm^3 | TGI (MDA-MB-468 xenograft [3]; 3 mg/kg qw, day 21): 144.2% | Tumor volume (TV) (MDA-MB-468 xenograft [3]; 3 mg/kg qw, day 21): 85 mm^3 | TGI (MDA-MB-468 xenograft [3]; 5 mg/kg qw, day 21): 168.4% | Tumor volume (TV) (MDA-MB-468 xenograft [3]; 5 mg/kg qw, day 21): 29 mm^3 | Tumor volume (MDA-MB-468 xenograft [3]; 3 mpk, biw, iv, day 0 after start of treatment): 195 ± 33 mm^3 | Tumor volume (MDA-MB-468 xenograft [3]; 3 mpk, biw, iv, day 2): 193 ± 27 mm^3 | Tumor volume (MDA-MB-468 xenograft [3]; 3 mpk, biw, iv, day 4): 154 ± 20 mm^3 | Tumor volume (MDA-MB-468 xenograft [3]; 3 mpk, biw, iv, day 7): 103 ± 20 mm^3 | Tumor volume (MDA-MB-468 xenograft [3]; 3 mpk, biw, iv, day 9): 83 ± 16 mm^3 | Tumor volume (MDA-MB-468 xenograft [3]; 3 mpk, biw, iv, day 11): 67 ± 14 mm^3 | Tumor volume (MDA-MB-468 xenograft [3]; 3 mpk, biw, iv, day 14): 49 ± 11 mm^3 | Tumor volume (MDA-MB-468 xenograft [3]; 3 mpk, biw, iv, day 16): 45 ± 14 mm^3 | Tumor volume (MDA-MB-468 xenograft [3]; 3 mpk, biw, iv, day 18): 32 ± 12 mm^3 | Tumor volume (MDA-MB-468 xenograft [3]; 3 mpk, biw, iv, day 21): 22 ± 4 mm^3 | T/C (MDA-MB-468 xenograft [3]; 3 mpk, biw, day 21): 4.9% | TGI (MDA-MB-468 xenograft [3]; 3 mpk, biw, day 21): 169.8% | Tumor volume (MDA-MB-468 xenograft [3]; 3 mpk, biw, day 21, Mean ± SEM (Table 22)): 22 ± 4 mm^3 | Tumor volume (MDA-MB-468 xenograft [3]; 3 mpk, qw, iv, day 0 after start of treatment): 194 ± 12 mm^3 | Tumor volume (MDA-MB-468 xenograft [3]; 3 mpk, qw, iv, day 2): 192 ± 26 mm^3 | Tumor volume (MDA-MB-468 xenograft [3]; 3 mpk, qw, iv, day 4): 184 ± 20 mm^3 | Tumor volume (MDA-MB-468 xenograft [3]; 3 mpk, qw, iv, day 7): 131 ± 20 mm^3 | Tumor volume (MDA-MB-468 xenograft [3]; 3 mpk, qw, iv, day 9): 113 ± 17 mm^3 | Tumor volume (MDA-MB-468 xenograft [3]; 3 mpk, qw, iv, day 11): 104 ± 13 mm^3 | Tumor volume (MDA-MB-468 xenograft [3]; 3 mpk, qw, iv, day 14): 94 ± 25 mm^3 | Tumor volume (MDA-MB-468 xenograft [3]; 3 mpk, qw, iv, day 16): 81 ± 23 mm^3 | Tumor volume (MDA-MB-468 xenograft [3]; 3 mpk, qw, iv, day 18): 87 ± 23 mm^3 | Tumor volume (MDA-MB-468 xenograft [3]; 3 mpk, qw, iv, day 21): 85 ± 31 mm^3 | T/C (MDA-MB-468 xenograft [3]; 3 mpk, qw, day 21): 18.9% | TGI (MDA-MB-468 xenograft [3]; 3 mpk, qw, day 21): 144.2% | Tumor volume (MDA-MB-468 xenograft [3]; 3 mpk, qw, day 21, Mean ± SEM (Table 22)): 85 ± 31 mm^3 | Tumor volume (MDA-MB-468 xenograft [3]; 5 mpk, qw, dosing suspended from day 21, day 23): 35 ± 5 mm^3 | Tumor volume (MDA-MB-468 xenograft [3]; 5 mpk, qw, dosing suspended from day 21, day 25): 48 ± 5 mm^3 | Tumor volume (MDA-MB-468 xenograft [3]; 5 mpk, qw, dosing suspended from day 21, day 28): 37 ± 7 mm^3 | Tumor volume (MDA-MB-468 xenograft [3]; 5 mpk, qw, dosing suspended from day 21, day 32): 28 ± 6 mm^3 | Tumor volume (MDA-MB-468 xenograft [3]; 5 mpk, qw, dosing suspended from day 21, day 35): 24 ± 4 mm^3 | Tumor volume (MDA-MB-468 xenograft [3]; 5 mpk, qw, dosing suspended from day 21, day 39): 28 ± 6 mm^3 | Tumor volume (MDA-MB-468 xenograft [3]; 5 mpk, qw, dosing suspended from day 21, day 42): 26 ± 6 mm^3 | Tumor volume (MDA-MB-468 xenograft [3]; 5 mpk, qw, iv, day 0 after start of treatment): 199 ± 28 mm^3 | Tumor volume (MDA-MB-468 xenograft [3]; 5 mpk, qw, iv, day 2): 193 ± 11 mm^3 | Tumor volume (MDA-MB-468 xenograft [3]; 5 mpk, qw, iv, day 4): 135 ± 4 mm^3 | Tumor volume (MDA-MB-468 xenograft [3]; 5 mpk, qw, iv, day 7): 98 ± 5 mm^3 | Tumor volume (MDA-MB-468 xenograft [3]; 5 mpk, qw, iv, day 9): 58 ± 5 mm^3 | Tumor volume (MDA-MB-468 xenograft [3]; 5 mpk, qw, iv, day 11): 49 ± 5 mm^3 | Tumor volume (MDA-MB-468 xenograft [3]; 5 mpk, qw, iv, day 14): 47 ± 2 mm^3 | Tumor volume (MDA-MB-468 xenograft [3]; 5 mpk, qw, iv, day 16): 37 ± 4 mm^3 | Tumor volume (MDA-MB-468 xenograft [3]; 5 mpk, qw, iv, day 18): 35 ± 3 mm^3 | Tumor volume (MDA-MB-468 xenograft [3]; 5 mpk, qw, iv, day 21): 29 ± 3 mm^3 | T/C (MDA-MB-468 xenograft [3]; 5 mpk, qw, day 21): 6.6% | TGI (MDA-MB-468 xenograft [3]; 5 mpk, qw, day 21): 168.4% | Tumor volume (MDA-MB-468 xenograft [3]; 5 mpk, qw, day 21, Mean ± SEM (Table 22)): 29 ± 3 mm^3 | anti-tumour activity (in words) (MDA-MB-468 xenograft [3]; mouse, in vivo): good anti-tumour activity
